According to patent US20080249113A1, “Fungicidal Mixtures” (priority 2004, published 2008):

Legend:
Format in all cases: in vivo
Puccinia recondita = assay: Use Example 6: protective activity against Puccinia recondita on wheat (brown rust of wheat); details: individual active compound
Experimental: (§1) For use examples 3 to 9, the active compounds, separately or jointly, were prepared as a stock solution comprising 0.25% by weight of active compound in acetone or DMSO. 1% by weight of the emulsifier Uniperol® EL (wetter having emulsifying and dispersant action based on ethoxylated alkylphenols) was added to this solution, and the mixture was diluted with water to the desired concentration.
(§2) The active compounds fosetyl-AI, epoxiconazole, triticonazole and pyraclostrobin were applied in their commercial formulation.
(§3) The visually determined percentages of infected leaf areas were converted into efficacies in % of the untreated control:
(§4) The efficacy (E) is calculated as follows using Abbot's formula: […]
(§5) α corresponds to the fungicidal infection of the treated plants in % and β corresponds to the fungicidal infection of the untreated (control) plants in %
(§6) […]; The expected efficacies of mixtures of active compounds were determined using Colby's formula (Colby, S.R. “Calculating synergistic and antagonistic responses of herbicide combinations”, Weeds, 15, 20-22, 1967) and compared with the observed efficacies.
(§7) E=x+y−x·y/100 • E expected efficacy, expressed in % of the untreated control, when using the mixture of the active compounds A and B at the concentrations a and b • x efficacy, expressed in % of the untreated control, when using the active compound A at the concentration a • y efficacy, expressed in % of the untreated control, when using the active compound B at the concentration b
Leaves of potted wheat seedlings of the cultivar “Kanzler” were sprayed to run off point with an aqueous suspension having the active compound concentration stated below. The next day, the treated plants were inoculated with a spore suspension of brown rust of wheat (Puccinia recondite). The plants were then placed in a chamber with high atmospheric humidity (90 to 95%) at 20 to 22° C. for 24 hours. During this time, the spores germinated and the germ tubes penetrated into the leaf tissue. The next day, the test plants were returned to the greenhouse and cultivated at temperatures between 20 and 22° C. and 65 to 70% relative atmospheric humidity for a further 7 days. The extent of the rust fungus development on the leaves was then determined visually.

Alternaria solani = assay: Use Example 5: early blight of tomato caused by Alternaria solani, synergism test (Abbot efficacy, Colby); details: individual active compound; for pest or weed control at 4 ppm: 4 ppm in the spray liquor
Experimental: as §1, §2
Leaves of potted plants of the cultivar “Goldene Königin” were sprayed to run off point with an aqueous suspension having the active compound concentration stated below. The next day, the leaves were infected with an aqueous spore suspension of Alternaria solani in a 2% strength biomalt solution having a density of 0.17×10^6 spores/ml. The plants were then placed in a water vapor-saturated chamber at temperatures between 20 and 22° C. After 5 days, the disease on the untreated but infected control plants had developed to such an extent that the infection could be determined visually in %.
A further test according to use example 3 was evaluated as follows:
as §3, §4, §5, §6, §7

Pyrenophora teres = assay: Use Example 7: net blotch of barley caused by Pyrenophora teres, 1 day protective application, synergism test; details: individual active compound
Experimental: as §1
Leaves of potted barley seedlings were sprayed to run off with an aqueous suspension having the active compound concentration stated below. 24 hours after the spray coating had dried on, the test plants were inoculated with an aqueous spore suspension of Pyrenophora [syn. Drechslera ] teres, the net blotch pathogen. The test plants were then placed in a greenhouse at temperatures between 20 and 24° C. and 95 to 100% relative atmospheric humidity. After 6 days, the extent of the development of the disease was determined visually in % infection of the entire leaf area.
as §3, §4, §5, §6, §7
In a further test according to use example 4, the following results were obtained: […]

[1] = Alternaria solani, 120 h, read-out: Efficacy in % of the untreated control
[2] = Alternaria solani, 120 h, 63 ppm in the spray liquor, read-out: Efficacy in % of the untreated control
[3] = Alternaria solani, 120 h, 16 ppm in the spray liquor, read-out: Efficacy in % of the untreated control

CCCN(CCOc1c(Cl)cc(Cl)cc1Cl)C(=O)n1ccnc1 [prochloraz, N-propyl-N-[2-(2,4,6-trichlorophenoxy)ethyl]imidazole-1-carboxamide]
Efficacy in % of the untreated control (Puccinia recondita; 4 ppm in the spray liquor): 0% | Efficacy in % of the untreated control (Puccinia recondita; 16 ppm in the spray liquor): 0%

CC(Cc1ccc(C(C)(C)C)cc1)CN1CC(C)OC(C)C1 (centres unmarked) [fenpropimorph, 4-[3-(4-tert-butylphenyl)-2-methylpropyl]-2,6-dimethylmorpholine]
Efficacy in % of the untreated control (Puccinia recondita; 16 ppm in the spray liquor): 0% | Efficacy in % of the untreated control (Puccinia recondita; 63 ppm in the spray liquor): 0%

CC1(C)CCC(=Cc2ccc(Cl)cc2)C1(O)Cn1cncn1 (centres unmarked) [triticonazole, 5-(4-chlorobenzylidene)-2,2-dimethyl-1-[1,2,4]triazol-1-ylmethylcyclo-pentanol]
pest or weed control at 4 ppm (Alternaria solani; [1]): 0%

manganese ethylenebis(dithiocarbamate) zinc complex [mancozeb]
Efficacy in % of the untreated control (Alternaria solani; 16 ppm in the spray liquor): 0% | Efficacy in % of the untreated control (Alternaria solani; 63 ppm in the spray liquor): 0% | Efficacy in % of the untreated control (Puccinia recondita; 16 ppm in the spray liquor): 0% | Efficacy in % of the untreated control (Puccinia recondita; 63 ppm in the spray liquor): 0%

N#Cc1c(Cl)c(Cl)c(Cl)c(C#N)c1Cl [chlorothalonil, 2,4,5,6-tetrachloroisophthalonitrile]
pest or weed control at 63 ppm (Alternaria solani; [2]): 0% | Efficacy in % of the untreated control (Puccinia recondita; 16 ppm in the spray liquor): 17%

Fc1ccc([C@]2(Cn3cncn3)O[C@H]2c2ccccc2Cl)cc1 (racemic) [epoxiconazole, (2RS, 3SR)-1-[3-(2-chlorophenyl)-2,3-epoxy-2-(4-fluorophenyl)propyl]-1H-1,2,4-triazole]
pest or weed control at 4 ppm (Alternaria solani; [1]): 56%

Cc1ccccc1-c1c(Cl)nc2ncnn2c1N1CCC(C)CC1 [Compound A-31, 5-chloro-6-(2-methylphenyl)-7-(4-methylpiperidin-1-yl)-1,2,4-triazolo[1,5a]pyrimidine]
Efficacy in % of the untreated control (Pyrenophora teres; 16 ppm in the spray liquor): 33% | Efficacy in % of the untreated control (Pyrenophora teres; 63 ppm in the spray liquor): 67% | Efficacy in % of the untreated control (Alternaria solani; 63 ppm in the spray liquor): 78% | Efficacy in % of the untreated control (Puccinia recondita; 16 ppm in the spray liquor): 22%

O=C(Nc1ccccc1-c1ccc(Cl)cc1)c1cccnc1Cl [boscalid, 2-chloro-N-(4′-chlorobiphenyl-2-yl)nicotinamide]
pest or weed control at 16 ppm (Alternaria solani; [3]): 22%

Cc1cc(C)nc(Nc2ccccc2)n1 [pyrimethanil, 4,6-dimethylpyrimidin-2-ylphenylamine]
Efficacy in % of the untreated control (Puccinia recondita; 16 ppm in the spray liquor): 0%

N#Cc1sc2c(=O)c3ccccc3c(=O)c=2sc1C#N [dithianon, 5,10-dioxo-5,10-dihydronaphtho[2,3-b][1,4]dithiine-2,3-dicarbonitrile]
Efficacy in % of the untreated control (Pyrenophora teres; 16 ppm in the spray liquor): 0%

CO/N=C(/C(=O)OC)c1ccccc1COc1ccccc1C [kresoxim-methyl, methyl (E)-methoxyimino[α-(otolyloxy)-otolyl]acetate]
Efficacy in % of the untreated control (Puccinia recondita; 1 ppm in the spray liquor): 0% | Efficacy in % of the untreated control (Puccinia recondita; 4 ppm in the spray liquor): 0%

Cc1ccc(-c2c(Cl)nc(C#N)n2S(=O)(=O)N(C)C)cc1 [cyazofamid, 4-chloro-2-cyano-N,N-dimethyl-5-p-tolylimidazole-1-sulfonamide]
pest or weed control at 16 ppm (Alternaria solani; [3]): 0% | pest or weed control at 63 ppm (Alternaria solani; [2]): 0% | pest or weed control at 250 ppm (Alternaria solani; Alternaria solani, 120 h, 250 ppm in the spray liquor, read-out: Efficacy in % of the untreated control): 0%

COc1ccc(C(=CC(=O)N2CCOCC2)c2ccc(Cl)cc2)cc1OC [dimethomorph, 3-(4-chlorophenyl)-3-(3,4-dimethoxyphenyl)-1-morpholin-4-ylpropenone]
Efficacy in % of the untreated control (Puccinia recondita; 16 ppm in the spray liquor): 0% | Efficacy in % of the untreated control (Puccinia recondita; 63 ppm in the spray liquor): 0%

O=C1c2ccccc2C(=O)N1SC(Cl)(Cl)Cl [folpet, 2-trichloromethylsulfanylisoindole-1,3-dione]
pest or weed control at 63 ppm (Alternaria solani; [2]): 0%

COCC(=O)N(c1c(C)cccc1C)C(C)C(=O)OC (racemic) [metalaxyl, methyl N-(methoxyacetyl)-N-(2,6-xylyl)-DL-alaninate]
pest or weed control at 4 ppm (Alternaria solani; [1]): 0%

OC(Cc1ccccc1Cl)(Cn1nc[nH]c1=S)C1(Cl)CC1 (centres unmarked) [prothioconazole, 2-[2-(1-chlorocyclopropyl)-3-(2-chlorophenyl)-2-hydroxypropyl]-2,4-dihydro-[1,2,4]triazole-3-thione]
pest or weed control at 4 ppm (Alternaria solani; [1]): 22%
